# Paper PMC7997369, “Assessment of the Multifunctional Behavior of Lupin Peptide P7 and Its Metabolite Using an Integrated Strategy” (Journal of Agricultural and Food Chemistry, 2020)
# pIC50: −log10 of the molar value. No end group written: not given here.
# Molecular target: angiotensin-converting enzyme (ACE) (Homo sapiens, UniProt P12821)
# Test: Cellular ACE inhibitory assay in undifferentiated intestinal Caco-2 cells
# Type: cell-based
# Parameters: endogenous in cells; host or cells: Caco-2 cells (INSERM, Paris)
# Settings: Caco-2 cells treated 24 h at 37 °C with P7 0.1–250 μM; ACE activity in cell lysates, fluorescent Abz substrate; mean ± sd of three independent experiments in triplicate
# Method: HK-2 cells from the American Type Culture Collection (ATCC) were cultured using Dulbecco’s modified Eagle’s medium–F12 (DMEM–F12) containing 25 mM glucose, 4 mM stable L-glutamine, 100 units […] penicillin, and 100 μg […] streptomycin, supplemented with 10% heat-inactivated fetal bovine serum (FBS, Hyclone Laboratories, Logan, UT, U.S.A.). […]
# For the experiments, HK-2 and Caco-2 cells were seeded on 96-well plates at a density of 5 × 10^4 cells/well for 24 h. […] Total proteins were quantified by the Bradford method, and 2 μL of the supernatant (the equivalent of 2 μg of total proteins) was added to 18 μL of ACE1 lysis buffer in each well in a black 96-well plate with a clear bottom. […] Then, 20 μL of diluted ACE1 substrate [o-aminobenzoyl peptide (Abz-based peptide) substrate, 4% of ACE1 substrate in the assay buffer] was added in each well, except the background well, and the fluorescence (excitation/emission of 330/430 nm) was measured in a kinetic mode for 10 min at 37 °C.
# Sequence of angiotensin-converting enzyme (ACE) (P12821 30-1306): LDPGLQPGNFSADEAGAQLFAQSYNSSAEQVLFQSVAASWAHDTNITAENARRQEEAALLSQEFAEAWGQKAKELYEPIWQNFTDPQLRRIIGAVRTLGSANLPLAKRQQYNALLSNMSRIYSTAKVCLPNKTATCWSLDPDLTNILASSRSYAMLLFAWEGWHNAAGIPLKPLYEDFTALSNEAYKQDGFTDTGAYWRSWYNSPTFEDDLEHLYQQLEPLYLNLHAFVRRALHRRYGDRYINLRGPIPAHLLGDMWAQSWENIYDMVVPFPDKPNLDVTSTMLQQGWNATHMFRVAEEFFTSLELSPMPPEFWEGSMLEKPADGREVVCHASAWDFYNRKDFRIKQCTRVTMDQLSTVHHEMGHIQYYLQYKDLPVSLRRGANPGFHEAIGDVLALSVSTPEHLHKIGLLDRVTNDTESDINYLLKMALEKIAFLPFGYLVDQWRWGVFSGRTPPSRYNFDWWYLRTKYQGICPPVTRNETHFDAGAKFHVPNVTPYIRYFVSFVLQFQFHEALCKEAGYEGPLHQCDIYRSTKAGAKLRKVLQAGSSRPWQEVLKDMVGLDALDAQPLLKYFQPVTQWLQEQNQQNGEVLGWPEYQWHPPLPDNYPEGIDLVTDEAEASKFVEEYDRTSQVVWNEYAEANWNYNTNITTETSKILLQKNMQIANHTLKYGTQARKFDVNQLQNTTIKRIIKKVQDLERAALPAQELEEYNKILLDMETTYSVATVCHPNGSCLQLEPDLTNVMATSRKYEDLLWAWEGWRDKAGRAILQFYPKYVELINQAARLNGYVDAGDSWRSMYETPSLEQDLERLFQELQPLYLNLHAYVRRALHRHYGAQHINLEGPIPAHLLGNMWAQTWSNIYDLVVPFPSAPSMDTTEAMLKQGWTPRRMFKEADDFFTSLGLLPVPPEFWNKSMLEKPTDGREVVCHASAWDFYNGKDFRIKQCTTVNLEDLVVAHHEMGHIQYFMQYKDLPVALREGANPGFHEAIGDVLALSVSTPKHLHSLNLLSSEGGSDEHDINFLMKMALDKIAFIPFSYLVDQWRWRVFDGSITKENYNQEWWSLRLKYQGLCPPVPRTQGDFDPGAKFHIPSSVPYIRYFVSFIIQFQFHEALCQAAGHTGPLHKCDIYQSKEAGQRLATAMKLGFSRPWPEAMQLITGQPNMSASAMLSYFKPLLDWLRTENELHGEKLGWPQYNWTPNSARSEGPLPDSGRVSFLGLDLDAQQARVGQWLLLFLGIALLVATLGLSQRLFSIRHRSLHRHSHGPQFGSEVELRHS
sequence,measurement,value
LTFPGSAED [P7],pIC50,4.86
